{"source": "patent US20100305068A1", "about": "“COMPOUNDS AND METHODS FOR MODULATING PROTEIN TRAFFICKING” (priority 2006, published 2010)"}
{"tested_on": "pdr5 ypt1^ts cells", "experiment": "microbe, parasite or virus in culture", "format": "cell-based, yeast", "settings": "Table 3; 3.13 uM compound; 37° C.; background (0 uM) 0.077", "text": "(§1) The activity of the compounds as modulators of protein trafficking may be measured in the assays described herein that evaluate the ability of a compound to rescue an impairment in protein trafficking. For example, the yeast mutant cell line ypt1^ts can be used to identify compounds that rescue cells from the lethal phenotype of a mutant YPT1 allele (see, e.g., Examples and Schmitt et al. (1988) Cell 53:635-47). The activity may be measured, for example, in a whole yeast cell assay using 384-well screening protocol and an optical density measurement.\n(§2) The yeast mutant cell line ypt1^ts suppresses, in a temperature dependent fashion, the dominant-lethal phenotype of a mutant YPT1 allele (Schmitt et al. (1988) Cell 53:635-47). ypt1^ts cells grow normally at temperatures up to 30° C., but are growth arrested at 37° C. (Id.).\n(§3) A library of compounds (“The Spectrum Collection”) obtained from Microsource Discovery Systems, Inc. (Gaylordsville, Conn.) was screened to assess the ability of individual compounds to restore growth of ypt1^ts cells. Screening was carried out using ypt1^ts cells containing a mutation in the pdr5 gene (resulting in inactivation of a membrane efflux pump). The effect of the compounds was measured in pdr5 ypt1^ts cells cultured at 37° C."}
{"smiles": "COc1ccc(C2CC(=O)c3ccc(OC)cc3O2)cc1", "note": "(stereo not drawn) [LIQUIRITI- GENIN DIMETHYL ETHER]", "optical density, 3.13 uM": 0.086}
{"smiles": "COC(=O)C[C@H]1C(C)(C)C2(O)OC34CC2C(=O)[C@]1(C)C3CC[C@]1(C)C4=CC(=O)O[C@H]1c1ccoc1", "note": "(stereo partly drawn) [8beta- HYDROXY- CARAPIN, 3,8- HEMIACETAL]", "optical density, 3.13 uM": 0.151}
{"smiles": "Nc1nc2ncc(=O)[nH]c2c(=O)[nH]1", "note": "[XANTHOP- TERIN]", "optical density, 3.13 uM": 0.101}
{"smiles": "CCOP(=S)(OCC)Oc1nc(Cl)c(Cl)cc1Cl", "note": "[CHLOR- PYRIFOS]", "optical density, 3.13 uM": 0.122}
{"smiles": "O=c1oc2ccccc2cc1O", "note": "[3- HYDROXY- COUMARIN]", "optical density, 3.13 uM": 0.083}
{"smiles": "CC(C)c1ccc2c(c1)CCC1[C@](C)(CN)CCC[C@]21C.O=S(=O)(O)O", "note": "(stereo partly drawn) [18-AMINO ABIETA- 8,11,13- TRIENE SULFATE]", "optical density, 3.13 uM": 0.055}
{"smiles": "Cc1c(O)c(O)cc2c1CC=C1[C@@]2(C)CC[C@@]2(C)C3C[C@](C)(C(=O)O)CC[C@]3(C)CC[C@]12C", "note": "(stereo partly drawn) [DIHYDRO- CELASTROL]", "optical density, 3.13 uM": 0.119}
{"smiles": "COc1ccc2c(c1)OCC(Cc1ccc(OC)c(OC)c1)C2=O", "note": "(stereo not drawn) [DEOXY- SAPPANONE B TRIMETHYL ETHER]", "optical density, 3.13 uM": 0.107}
{"smiles": "C=C1[C@H]2CC[C@@]3(C)[C@H](c4ccoc4)OC(=O)C[C@]13O[C@H]1C[C@H](O)C(C)(C)[C@H](CC(=O)OC)[C@]12C", "note": "[3-DEOXY-3beta- HYDROXY- […] METHYL ESTER]", "optical density, 3.13 uM": 0.384}
{"smiles": "CC1(C)C2CC(=O)O[C@@]3(C)C4=CC(=O)O[C@@H](c5ccoc5)[C@]4(C)CCC3[C@@]2(C)C=C[C@H]1O", "note": "(stereo partly drawn) [DEOXY- ANDIROBIN LACTONE]", "optical density, 3.13 uM": 0.723}
{"smiles": "CC(CCC(=O)O)[C@H]1CCC2C3C(CC[C@@]21C)[C@@]1(C)CC[C@@H](O)C[C@H]1C[C@@H]3O", "note": "(stereo partly drawn) [URSODIOL, reference compound]", "optical density, 3.13 uM": 0.202}
{"smiles": "C=C1C([C@@]2(C)[C@@H](C)CC(=O)C(C)(C)[C@@H]2C(OC(C)=O)C(=O)OC)CC[C@@]2(C)[C@H](c3ccoc3)OC(=O)C[C@]12O", "note": "(stereo partly drawn) [6-ACETOXY- […] METHYL ESTER]", "optical density, 3.13 uM": 0.131}
{"smiles": "COc1ccc(-c2coc3cc(OC)ccc3c2=O)cc1", "note": "[7,4′- DIMETH- OXYISO- FLAVONE]", "optical density, 3.13 uM": 0.222}
{"smiles": "CCc1cccc(CC)c1N(COC)C(=O)CCl", "note": "[ALACHLOR]", "optical density, 3.13 uM": 0.101}
{"tested_on": "pdr5 ypt1^ts cells", "experiment": "microbe, parasite or virus in culture", "format": "cell-based, yeast", "settings": "Table 3; 12.5 uM compound; 37° C.; background (0 uM) 0.077", "text": "as §1, §2, §3"}
{"smiles": "COc1ccc(C2CC(=O)c3ccc(OC)cc3O2)cc1", "note": "(stereo not drawn) [LIQUIRITI- GENIN DIMETHYL ETHER]", "optical density, 12.5 uM": 0.13}
{"smiles": "COC(=O)C[C@H]1C(C)(C)C2(O)OC34CC2C(=O)[C@]1(C)C3CC[C@]1(C)C4=CC(=O)O[C@H]1c1ccoc1", "note": "(stereo partly drawn) [8beta- HYDROXY- CARAPIN, 3,8- HEMIACETAL]", "optical density, 12.5 uM": 0.383}
{"smiles": "Nc1nc2ncc(=O)[nH]c2c(=O)[nH]1", "note": "[XANTHOP- TERIN]", "optical density, 12.5 uM": 0.23}
{"smiles": "CCOP(=S)(OCC)Oc1nc(Cl)c(Cl)cc1Cl", "note": "[CHLOR- PYRIFOS]", "optical density, 12.5 uM": 0.166}
{"smiles": "O=c1oc2ccccc2cc1O", "note": "[3- HYDROXY- COUMARIN]", "optical density, 12.5 uM": 0.109}
{"smiles": "CC(C)c1ccc2c(c1)CCC1[C@](C)(CN)CCC[C@]21C.O=S(=O)(O)O", "note": "(stereo partly drawn) [18-AMINO ABIETA- 8,11,13- TRIENE SULFATE]", "optical density, 12.5 uM": 0.06}
{"smiles": "Cc1c(O)c(O)cc2c1CC=C1[C@@]2(C)CC[C@@]2(C)C3C[C@](C)(C(=O)O)CC[C@]3(C)CC[C@]12C", "note": "(stereo partly drawn) [DIHYDRO- CELASTROL]", "optical density, 12.5 uM": 0.526}
{"smiles": "COc1ccc2c(c1)OCC(Cc1ccc(OC)c(OC)c1)C2=O", "note": "(stereo not drawn) [DEOXY- SAPPANONE B TRIMETHYL ETHER]", "optical density, 12.5 uM": 0.203}
{"smiles": "C=C1[C@H]2CC[C@@]3(C)[C@H](c4ccoc4)OC(=O)C[C@]13O[C@H]1C[C@H](O)C(C)(C)[C@H](CC(=O)OC)[C@]12C", "note": "[3-DEOXY-3beta- HYDROXY- […] METHYL ESTER]", "optical density, 12.5 uM": 0.641}
{"smiles": "CC1(C)C2CC(=O)O[C@@]3(C)C4=CC(=O)O[C@@H](c5ccoc5)[C@]4(C)CCC3[C@@]2(C)C=C[C@H]1O", "note": "(stereo partly drawn) [DEOXY- ANDIROBIN LACTONE]", "optical density, 12.5 uM": 0.678}
{"smiles": "CC(CCC(=O)O)[C@H]1CCC2C3C(CC[C@@]21C)[C@@]1(C)CC[C@@H](O)C[C@H]1C[C@@H]3O", "note": "(stereo partly drawn) [URSODIOL, reference compound]", "optical density, 12.5 uM": 0.41}
{"smiles": "C=C1C([C@@]2(C)[C@@H](C)CC(=O)C(C)(C)[C@@H]2C(OC(C)=O)C(=O)OC)CC[C@@]2(C)[C@H](c3ccoc3)OC(=O)C[C@]12O", "note": "(stereo partly drawn) [6-ACETOXY- […] METHYL ESTER]", "optical density, 12.5 uM": 0.364}
{"smiles": "COc1ccc(-c2coc3cc(OC)ccc3c2=O)cc1", "note": "[7,4′- DIMETH- OXYISO- FLAVONE]", "optical density, 12.5 uM": 0.551}
{"smiles": "CCc1cccc(CC)c1N(COC)C(=O)CCl", "note": "[ALACHLOR]", "optical density, 12.5 uM": 0.142}
{"tested_on": "pdr5 ypt1^ts cells", "experiment": "microbe, parasite or virus in culture", "format": "cell-based, yeast", "settings": "Table 3; 50 uM compound; 37° C.; background (0 uM) 0.077", "text": "as §1, §2, §3"}
{"smiles": "COc1ccc(C2CC(=O)c3ccc(OC)cc3O2)cc1", "note": "(stereo not drawn) [LIQUIRITI- GENIN DIMETHYL ETHER]", "optical density, 50 uM": 0.364}
{"smiles": "COC(=O)C[C@H]1C(C)(C)C2(O)OC34CC2C(=O)[C@]1(C)C3CC[C@]1(C)C4=CC(=O)O[C@H]1c1ccoc1", "note": "(stereo partly drawn) [8beta- HYDROXY- CARAPIN, 3,8- HEMIACETAL]", "optical density, 50 uM": 0.486}
{"smiles": "Nc1nc2ncc(=O)[nH]c2c(=O)[nH]1", "note": "[XANTHOP- TERIN]", "optical density, 50 uM": 0.073}
{"smiles": "CCOP(=S)(OCC)Oc1nc(Cl)c(Cl)cc1Cl", "note": "[CHLOR- PYRIFOS]", "optical density, 50 uM": 0.253}
{"smiles": "O=c1oc2ccccc2cc1O", "note": "[3- HYDROXY- COUMARIN]", "optical density, 50 uM": 0.299}
{"smiles": "CC(C)c1ccc2c(c1)CCC1[C@](C)(CN)CCC[C@]21C.O=S(=O)(O)O", "note": "(stereo partly drawn) [18-AMINO ABIETA- 8,11,13- TRIENE SULFATE]", "optical density, 50 uM": 0.378}
{"smiles": "Cc1c(O)c(O)cc2c1CC=C1[C@@]2(C)CC[C@@]2(C)C3C[C@](C)(C(=O)O)CC[C@]3(C)CC[C@]12C", "note": "(stereo partly drawn) [DIHYDRO- CELASTROL]", "optical density, 50 uM": 0.33}
{"smiles": "COc1ccc2c(c1)OCC(Cc1ccc(OC)c(OC)c1)C2=O", "note": "(stereo not drawn) [DEOXY- SAPPANONE B TRIMETHYL ETHER]", "optical density, 50 uM": 0.514}
{"smiles": "C=C1[C@H]2CC[C@@]3(C)[C@H](c4ccoc4)OC(=O)C[C@]13O[C@H]1C[C@H](O)C(C)(C)[C@H](CC(=O)OC)[C@]12C", "note": "[3-DEOXY-3beta- HYDROXY- […] METHYL ESTER]", "optical density, 50 uM": 0.621}
{"smiles": "CC1(C)C2CC(=O)O[C@@]3(C)C4=CC(=O)O[C@@H](c5ccoc5)[C@]4(C)CCC3[C@@]2(C)C=C[C@H]1O", "note": "(stereo partly drawn) [DEOXY- ANDIROBIN LACTONE]", "optical density, 50 uM": 0.642}
{"smiles": "CC(CCC(=O)O)[C@H]1CCC2C3C(CC[C@@]21C)[C@@]1(C)CC[C@@H](O)C[C@H]1C[C@@H]3O", "note": "(stereo partly drawn) [URSODIOL, reference compound]", "optical density, 50 uM": 0.523}
{"smiles": "C=C1C([C@@]2(C)[C@@H](C)CC(=O)C(C)(C)[C@@H]2C(OC(C)=O)C(=O)OC)CC[C@@]2(C)[C@H](c3ccoc3)OC(=O)C[C@]12O", "note": "(stereo partly drawn) [6-ACETOXY- […] METHYL ESTER]", "optical density, 50 uM": 0.489}
{"smiles": "COc1ccc(-c2coc3cc(OC)ccc3c2=O)cc1", "note": "[7,4′- DIMETH- OXYISO- FLAVONE]", "optical density, 50 uM": 0.513}
{"smiles": "CCc1cccc(CC)c1N(COC)C(=O)CCl", "note": "[ALACHLOR]", "optical density, 50 uM": 0.45}
